Reference: ChEMBL document CHEMBL1158304, “New Oxygenated Cephalotaxus Alkaloids from Cephalotaxus harringtonia var. drupacea” (J Nat Prod, 1996)
In brackets after ≈: the same amount, converted by molar mass.

tested on: P388; test: Cytotoxicity against mouse P388 cells; format: functional, cell-based

SMILES	IC50
COC(=O)C[C@](O)(CCCC(C)C)C(=O)O[C@@H]1C(OC)=C[C@]23CCCN2C[C@@H](O)c2cc4c(cc2[C@H]13)OCO4	0.38 µg/mL (≈ 0.696 µM)
COC(=O)C[C@](O)(CCCC(C)C)C(=O)O[C@@H]1C(OC)=C[C@]23CCCN2C[C@H](O)c2cc4c(cc2[C@H]13)OCO4	0.33 µg/mL (≈ 0.605 µM)
COC(=O)C[C@](O)(CCC(C)C)C(=O)O[C@@H]1C(OC)=C[C@]23CCCN2C[C@H](O)c2cc4c(cc2[C@H]13)OCO4	0.17 µg/mL (≈ 0.32 µM)
